details: not given

Compound	log10 vapour pressure (mmHg)	melting point	boiling point	log10 Henry constant (atm·m³/mol)	log10 Koa	log10 Koc (L/kg)	ready biodegradability	log10 biodegradation half-life (days)
CC(C)Nc1nc(Cl)nc(NC2CC2)n1	-6.52	167 °C	–	–	–	–	–	–
C[C@@H]1CCCCN1	1.29	–	120 °C	–	–	–	–	–
c1ccc([Si](c2ccccc2)(c2ccccc2)c2ccccc2)cc1	–	236 °C	–	–	–	–	–	–
Cc1cc(C)n(C)n1	–	–	170 °C	–	–	–	–	–
Cc1ccccc1CC#N	–	–	244 °C	–	–	–	–	–
OB(O)c1ccc(Cl)cc1	–	286 °C	–	–	–	–	–	–
CC1CNC(C)CN1 (stereo unspecified)	0.422	116 °C	163 °C	–	–	–	–	–
N#Cc1ccncc1	–	79 °C	214 °C	-6.03	–	–	–	–
Clc1ccc(Cl)c(Cl)c1Cl	-1.41	47.5 °C	254 °C	-3.12	5.64	3.84	not readily biodegradable	–
N#CCc1ccc2ccccc2c1	–	83 °C	303 °C	–	–	–	–	–
CCCCC(C)CC(C)C (stereo unspecified)	–	–	156 °C	–	–	–	–	–
CCCCCCCCCCCCOC(=O)c1ccc(N)cc1	–	82 °C	–	–	–	–	–	–
CCCCOC(=O)CC(C)=O	–	-35.6 °C	–	–	–	–	readily biodegradable	–
O=C(O)CCCCCCCCCCC(=O)O	–	128 °C	–	–	–	–	–	–
CC(CCO)CCCC(C)(C)O (stereo unspecified)	–	–	265 °C	–	–	–	–	–
CC(O)C(C)O (racemic)	-0.677	16.3 °C	182 °C	–	–	–	–	–
Cc1c(Cl)c(Cl)cc(Cl)c1Cl	–	93.5 °C	–	–	–	–	–	–
CCN(CC)CCNC(=O)c1cc(Cl)c(N)cc1OC	–	147 °C	–	–	–	–	–	–
CNC(=O)Oc1ccccc1C(C)C	-4.68	94 °C	–	–	–	–	not readily biodegradable	–
CNCC(OC)OC	–	–	140 °C	–	–	–	–	–
O=C(O)c1ccccc1C(=O)Nc1ccc(S(=O)(=O)Nc2nccs2)cc1	–	273 °C	–	–	–	–	–	–
CCCCCCCCc1ccc(O)cc1	–	–	–	–	–	–	not readily biodegradable	–
O=C1NC(=O)c2c(Cl)c(Cl)c(Cl)c(Cl)c21	–	–	–	–	–	–	not readily biodegradable	–
O=C(O)CN(CC(=O)O)CC(=O)O	–	–	–	–	–	–	not readily biodegradable	–
C1=CC2C3C=CC(C3)C2C1 (stereo unspecified)	0.361	15.5 °C	170 °C	–	–	–	not readily biodegradable	–
BrCc1ccc(Br)cc1	–	63 °C	–	–	–	–	–	–

Compound	log10 vapour pressure (mmHg)	melting point	boiling point	log10 Henry constant (atm·m³/mol)	log10 Koa	log10 Koc (L/kg)	ready biodegradability	log10 biodegradation half-life (days)
CC1C2Cc3ccc(O)cc3C1(C)CCN2CCc1ccccc1 (stereo unspecified)	–	181 °C	–	–	–	–	–	–
Cc1cc(C)c(N)cc1C	-2.05	68 °C	234 °C	-5.61	–	–	–	–
C=C(C)CCO	0.551	–	132 °C	–	–	–	–	–
CC(C)C1=CC2=CC[C@@H]3[C@](C)(CCC[C@@]3(C)C(=O)O)[C@H]2CC1	–	174 °C	–	–	–	–	not readily biodegradable	–
FC(F)(F)C(F)(F)C(F)(F)F	3.82	-148 °C	-36.6 °C	–	–	–	–	–
CN1[C@H]2CC[C@@H]1[C@@H](C(=O)O)[C@H](O)C2	–	205 °C	–	–	–	–	–	–
C=CC(C)(C)C	2.63	-115 °C	41.2 °C	–	–	–	–	–
NCCCCCCO	-2.62	57 °C	–	–	–	–	–	–
c1ccc(-c2ccccc2-c2ccccc2-c2ccccc2)cc1	–	118 °C	420 °C	–	–	–	–	–
CC[Si](F)(CC)CC	1.57	–	110 °C	–	–	–	–	–
N#CCc1ccc(Br)cc1	–	48 °C	–	–	–	–	–	–
C#CC(OCC)OCC	–	–	139 °C	–	–	–	–	–
OCCN1CCN(CCO)CC1	–	135 °C	–	–	–	–	–	–
CCCCCCC(C)NC(C)CCCCCC (stereo unspecified)	–	–	283 °C	–	–	–	–	–
CC(=O)NCc1c(I)c(NC(C)=O)c(I)c(C(=O)O)c1I	–	255 °C	–	–	–	–	–	–
Cc1ccc(C)cc1	0.947	13.2 °C	138 °C	-2.16	3.79	2.41	readily biodegradable	0.954
ClCCI	–	-15.6 °C	140 °C	–	–	–	–	–
O=C(c1ccccc1)C(F)(F)F	–	-40 °C	153 °C	–	–	–	–	–
CCCC1C(=O)N2C(N(C)C)=Nc3ccc(C)cc3N2C1=O (stereo unspecified)	–	247 °C	–	–	–	–	–	–
Clc1nc(Cl)nc(Cl)n1	–	154 °C	192 °C	–	–	–	–	–
C=C(C)c1ccc(C)c2ccc(C=O)c-2c1	–	58 °C	–	–	–	–	–	–
OCC1(CO)CC=CCC1	–	88.5 °C	–	–	–	–	–	–
CCCCOC(=O)C1(O)c2ccccc2-c2ccccc21	–	71 °C	–	–	–	–	–	–
CN(C)c1ccccc1N(C)C	–	8.9 °C	216 °C	–	–	–	–	–
O=C(O)CNC(CO)(CO)CO	–	187 °C	–	–	–	–	–	–
O=S(=O)(Cl)c1ccc(I)cc1	–	85 °C	–	–	–	–	–	–

Compound	log10 vapour pressure (mmHg)	melting point	boiling point	log10 Henry constant (atm·m³/mol)	log10 Koa	log10 Koc (L/kg)	ready biodegradability	log10 biodegradation half-life (days)
CC1=CC(=O)C(C2=C(O)C(=O)C(C)=CC2=O)=C(O)C1=O	–	230 °C	–	–	–	–	–	–
O=C(O)CF	–	35.2 °C	168 °C	-7.91	–	–	–	–
CCCC(=O)O	0.217	-5.7 °C	–	-6.27	–	–	readily biodegradable	–
c1cc2c(c(NC3=NCCN3)c1)CCCC2	–	142 °C	–	–	–	–	–	–
OCCc1ccccn1	–	-7.8 °C	–	–	–	1.45	–	–
C=C[Si](C)(C)OCC	–	–	99 °C	–	–	–	–	–
N=C(Nc1ccccc1)Nc1ccccc1	–	150 °C	–	–	–	–	not readily biodegradable	–
Cc1csc(N)n1	–	45.5 °C	–	–	–	–	–	–
O=C(O)c1ccc([N+](=O)[O-])o1	–	186 °C	–	–	–	–	–	–
Nc1ccc(Cl)cc1	-1.57	72.5 °C	232 °C	–	–	1.96	not readily biodegradable	–
CN1CC[C@]23c4c5ccc(OCCN6CCOCC6)c4O[C@H]2[C@@H](O)C=C[C@H]3[C@H]1C5	–	91 °C	–	–	–	–	–	–
CC(=O)NC(N)=O	–	218 °C	–	–	–	–	–	–
Cc1cc(C)nc(Nc2ccccc2)n1	-4.78	96.3 °C	–	–	–	–	–	–
FC(F)(F)C(Cl)Cl	2.86	-107 °C	27 °C	-1.59	–	–	not readily biodegradable	–
O=C(C=Cc1ccco1)C=Cc1ccco1	–	60.5 °C	–	–	–	–	–	–
CC1=C(O)C(=O)C(C)O1 (stereo unspecified)	–	80.5 °C	–	–	–	–	–	–
CCC(CC)C(C)(C)C	1.05	-99.3 °C	134 °C	–	–	–	–	–
C=CCCBr	–	–	98.5 °C	–	–	–	–	–
Cc1ccccc1NCCO	–	–	286 °C	–	–	–	–	–
C#C[C@]1(OC(C)=O)CC[C@H]2[C@@H]3CCC4=CC(=O)CC[C@@H]4[C@H]3CC[C@@]21C	–	162 °C	–	–	–	–	–	–
CC(C)CCCCCOC(=O)c1ccccc1C(=O)OCCCCCC(C)C	-5.26	–	–	–	–	3.21	–	–
CC[C@H](C)[C@@H](C)[C@@H](C)O	–	–	166 °C	–	–	–	–	–
O=C(O)CCCCCCCCCCCCC1C=CCC1 (stereo unspecified)	–	68.5 °C	–	–	–	–	–	–
CCc1ncc(C)cc1C	–	–	198 °C	–	–	–	–	–
COC(=O)c1ccc(O)c(N)c1	–	143 °C	–	–	–	–	–	–
COP(=S)(OC)SCC(=O)N(C)C=O	-6.07	25.5 °C	–	–	–	–	–	–

Compound	log10 vapour pressure (mmHg)	melting point	boiling point	log10 Henry constant (atm·m³/mol)	log10 Koa	log10 Koc (L/kg)	ready biodegradability	log10 biodegradation half-life (days)
SC1CCCC1	1.06	–	132 °C	–	–	–	–	–
O=C(O)c1ccc(Br)c([N+](=O)[O-])c1	–	204 °C	–	–	–	–	–	–
O=[N+]([O-])c1ccc(Cl)c([N+](=O)[O-])c1	-4.07	53 °C	315 °C	–	–	–	not readily biodegradable	–
CC(=O)C(c1ccccc1)c1ccccc1	–	46 °C	307 °C	–	–	–	–	–
O=C=Nc1cccc2c(N=C=O)cccc12	-4.47	130 °C	330 °C	–	–	–	–	–
Cc1cc(=O)n(-c2ccccc2)n1C	–	114 °C	319 °C	–	–	–	–	–
CCCCCC1CCCC1	–	-83 °C	180 °C	–	–	–	–	–
O=C(Nc1ccccc1)OCC1(COC(=O)Nc2ccccc2)CCCC1	–	152 °C	–	–	–	–	–	–
Oc1ccccc1	-0.456	40.9 °C	182 °C	-6.48	–	1.43	readily biodegradable	–
O=C(O)c1ccc2ccccc2c1O	–	195 °C	–	–	–	–	–	–
O=Cc1ccco1	0.344	-38.1 °C	162 °C	–	–	–	readily biodegradable	–
O=C1C=C(N2CC2)C(=O)C(N2CC2)=C1N1CC1	–	163 °C	–	–	–	–	–	–
Cc1cccc(C)n1	0.752	-6.1 °C	144 °C	-4.98	–	–	–	–
Clc1ccc(Cl)c(-c2cc(Cl)ccc2Cl)c1	–	–	–	-3.7	8.47	5.12	not readily biodegradable	–
CCCCCC[N+](=O)[O-]	–	–	193 °C	–	–	–	–	–
CC(C)CCS	1.31	–	120 °C	–	–	–	–	–
CC(C)=C1CCCC(C)C1 (stereo unspecified)	–	–	174 °C	–	–	–	–	–
Cc1ccccc1Cc1ccccc1	–	6.6 °C	280 °C	–	–	–	–	–
c1ccc2c(c1)Nc1ccccc1O2	–	156 °C	–	–	–	–	–	–
FC(Cl)=C(Cl)C(F)(F)F	–	-137 °C	47.3 °C	–	–	–	–	–
NC(=O)CN1CCCC1=O	–	152 °C	–	–	–	–	–	–
N#CC#CC#N	–	20.5 °C	–	–	–	–	–	–
O=S(=O)(O)OCCOc1ccc(Cl)cc1Cl	–	170 °C	–	–	–	–	–	–
C=C(C)C(=O)OCc1ccccc1	–	–	–	–	–	–	readily biodegradable	–
FC(F)=C(F)OC(F)(F)C(F)(F)C(F)(F)F	–	–	–	–	–	–	not readily biodegradable	–
CCCCCCC(O)CCC (stereo unspecified)	–	-11 °C	210 °C	–	–	–	–	–

Compound	log10 vapour pressure (mmHg)	melting point	boiling point	log10 Henry constant (atm·m³/mol)	log10 Koa	log10 Koc (L/kg)	ready biodegradability	log10 biodegradation half-life (days)
BrC(c1ccccc1)c1ccccc1	–	45 °C	–	–	–	–	–	–
C=CCC(C(=O)OCC)C(=O)OCC	–	–	222 °C	–	–	–	–	–
CCCCOC(=O)CCC	0.258	-91.5 °C	166 °C	–	–	–	–	–
CC(O)(c1ccc(Cl)cc1)c1ccc(Cl)cc1	–	70 °C	–	–	–	–	–	–
CC=CCCCCCCCCO	–	6 °C	248 °C	–	–	–	–	–
O=C=NC1CCCCC1	0.0086	-80 °C	172 °C	–	–	–	–	–
O=C(c1ccccc1)c1ccc(Cl)c([N+](=O)[O-])c1	–	105 °C	–	–	–	–	–	–
CNCCCN	–	–	–	–	–	–	readily biodegradable	–
CC(C)CCOCCC(C)C	0.146	–	172 °C	–	–	–	not readily biodegradable	–
CCCCCCCCC=CCCCCCCCC(=O)Nc1ccccc1	–	41 °C	–	–	–	–	–	–
c1ccc(CCCC2CCCC2)cc1	–	–	272 °C	–	–	–	–	–
CO[C@H](C(=O)c1ccccc1)c1ccccc1	–	49.5 °C	–	–	–	–	–	–
COc1ccc(CN(CCN(C)C)c2ncccn2)cc1.Cl	–	174 °C	–	–	–	–	–	–
CCOP(=S)(OCC)Oc1ccc(SC)cc1	–	–	–	–	–	3.18	–	–
C=CC[Si](Cl)(Cl)Cl	1.25	35 °C	118 °C	–	–	–	–	–
CCOCCOC(=O)C=Cc1ccc(OC)cc1	–	-25 °C	–	–	–	–	–	–
COc1cccc(C(N)=O)c1	–	134 °C	–	–	–	–	–	–
OCc1cc(Cl)cc(Cl)c1	–	80.5 °C	–	–	–	–	–	–
CC(=O)Cc1ccco1	–	29 °C	180 °C	–	–	–	–	–
O=[N+]([O-])c1ccc2c(c1)NCC2	–	68 °C	–	–	–	–	–	–
CC(Oc1ccccc1Cl)C(=O)O (stereo unspecified)	–	114 °C	–	–	–	–	–	–
ON=C1CCCCC1=NO	–	192 °C	–	–	–	–	–	–
O=S1OCC2C(CO1)C1(Cl)C(Cl)=C(Cl)C2(Cl)C1(Cl)Cl (stereo unspecified)	-6.17	106 °C	–	-4.62	–	4.11	–	–
CC(C)OC(OC(C)C)OC(C)C	–	–	167 °C	–	–	–	–	–

same assay, conditions: fish

Compound	log10 BCF	log10 biotransformation half-life (days)
Clc1ccc(Cl)c(Cl)c1Cl	3.38	0.69
CNC(=O)Oc1ccccc1C(C)C	0.95	-1.25
C1=CC2C3C=CC(C3)C2C1 (stereo unspecified)	2.34	–
CC(C)C1=CC2=CC[C@@H]3[C@](C)(CCC[C@@]3(C)C(=O)O)[C@H]2CC1	1.97	–
Cc1ccc(C)cc1	1.17	–
N=C(Nc1ccccc1)Nc1ccccc1	1.3	–
Nc1ccc(Cl)cc1	0.84	-0.61
Oc1ccccc1	1.24	–
Clc1ccc(Cl)c(-c2cc(Cl)ccc2Cl)c1	4.26	–
CC(C)CCOCCC(C)C	2.23	-0.45

Source: the OPERA property sets (Mansouri et al. 2018)
